The source of these data is patent US20240254118A1, “PRMT5 INHIBITORS AND USES THEREOF” (Gilead Sciences, Inc., priority 2022, published 2024).

In test [1] the test system is SDMA signal (PRMT5 inhibition) in HCT116 MTAP-deleted cells. As to the kind of experiment: Symmetric di-methyl arginine image-based high content screen assay (SDMA assay), HCT116 MTAP-deleted. The class given is cell-based. To be noted: SDMA assay; for EC50: Homo sapiens, HCT-116, 72 h, 3 days of treatment, cell line not given, taken as HCT116 MTAP-deleted, read-out: EC50 (SDMA assay); for EC50 selectivity (SDMA assay): taken as HCT116 WT versus MTAP-deleted. In a few lines: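 HCT116 MTAP-deleted cells treated with compound until Day 3, then formalin-fixed, permeabilized and immunostained for SDMA, with DAPI nuclear counterstain. Imaged by high-content microscopy; SDMA read-out is mean Alexa 488 intensity per DAPI-defined cell, reflecting PRMT5 inhibition.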

The test system of test [2] is HCT116 MTAP-deleted cells. The test is described as follows: Cell viability assay (CellTiter-Glo, 7 days), HCT116 MTAP-deleted. Particulars: Homo sapiens, HCT-116, 168 h. On the technique in general: ATP-based viability assays read luminescence as a measure of living cells.

Usually EC50 stands for the concentration that produces a half-maximal response. Usually CC50 stands for the concentration at which the toxic effect on the cells reaches its halfway point. Low values mean harm at low concentration, high ones better tolerance by the cells. `CN(C(=O)C12CC(C1)C2)N(Cc1ccc(C(F)(F)F)cn1)C(=O)c1ccc2nc(N)c3cnn(C)c3c2c1` [Example 101, 4-amino-N′-(bicyclo[1.1.1]pentane-1-carbonyl)-N′,1-dimethyl-N-[[5-(trifluoromethyl)-2-pyridyl]methyl]pyrazolo[4,3-c]quinoline-8-carbohydrazide]: in test [1], the concentration giving a half-maximal response (EC50) is 1 to 5 nM and the “EC50 selectivity (SDMA assay)” value turned out to be 108. In test [2], this compound showed a half-maximal cytotoxic concentration (CC50) of under 100 nM.
Consider `CN(C(=O)C12CC(F)(C1)C2)N(Cc1ccc(C(F)(F)F)cn1)C(=O)c1ccc2nc(N)c3cnn(C)c3c2c1` [Example 102, 4-amino-N′-(3-fluorobicyclo[1.1.1]pentane-1-carbonyl)-N′,1-dimethyl-N-[[5-(trifluoromethyl)-2-pyridyl]methyl]pyrazolo[4,3-c]quinoline-8-carbohydrazide], for which, in test [1], the EC50 was 1 to 5 nM and the “EC50 selectivity (SDMA assay)” value is 252. The same compound had a CC50 in test [2] of under 100 nM.
As to `CC(=O)N1CC(C(=O)N(C)N(Cc2ccc(C(F)(F)F)cn2)C(=O)c2ccc3nc(N)c4cnn(C)c4c3c2)C1` [Example 103, N′-(1-acetylazetidine-3-carbonyl)-4-amino-N′,1-dimethyl-N-[[5-(trifluoromethyl)-2-pyridyl]methyl]pyrazolo[4,3-c]quinoline-8-carbohydrazide], in test [1], the EC50 is over 5 nM and the “EC50 selectivity (SDMA assay)” value is under 500. In test [2], this compound returned a CC50 of over 1000 nM.
For the compound `CN(C(=O)C1CCC1)N(Cc1ccc(C(F)(F)F)nn1)C(=O)c1ccc2nc(N)c3cnn(C)c3c2c1` [Example 104, 4-amino-N′-(cyclobutanecarbonyl)-N′,1-dimethyl-N-((6-(trifluoromethyl)pyridazin-3-yl)methyl)-1H-pyrazolo[4,3-c]quinoline-8-carbohydrazide], in test [1], the concentration giving a half-maximal response (EC50) is 1 to 5 nM and the “EC50 selectivity (SDMA assay)” value is 173. The same compound had a CC50 in test [2] of under 100 nM.
The like results for `CN(C(=O)c1cocn1)N(Cc1ccc(C(F)(F)F)cn1)C(=O)c1ccc2nc(N)c3cnn(C)c3c2c1` [Example 105, N′-(4-amino-1-methyl-1H-pyrazolo[4,3-c]quinoline-8-carbonyl)-N-methyl-N′-((5-(trifluoromethyl)pyridin-2-yl)methyl)oxazole-4-carbohydrazide] were, in that order, under 1 nM, 15 and under 100 nM.
On to `CN(C(=O)c1cscn1)N(Cc1ccc(C(F)(F)F)cn1)C(=O)c1ccc2nc(N)c3cnn(C)c3c2c1` [Example 106, N′-(4-amino-1-methyl-1H-pyrazolo[4,3-c]quinoline-8-carbonyl)-N-methyl-N′-((5-(trifluoromethyl)pyridin-2-yl)methyl)thiazole-4-carbohydrazide], for which, in test [1], the EC50 was under 1 nM and the “EC50 selectivity (SDMA assay)” value turned out to be 16. This compound also displayed a cytotoxic concentration (CC50) in test [2] of under 100 nM.
As for `CC(=O)N(N(Cc1ccc(C(F)(F)F)cn1)C(=O)c1ccc2nc(N)c3cnn(C)c3c2c1)C12CC(C1)C2` [Example 107, N′-acetyl-4-amino-N′-(1-bicyclo[1.1.1]pentanyl)-1-methyl-N-[[5-(trifluoromethyl)-2-pyridyl]methyl]pyrazolo[4,3-c]quinoline-8-carbohydrazide], in test [1], the EC50 is under 1 nM and the “EC50 selectivity (SDMA assay)” value amounted to 163. Also, in test [2], the CC50 is under 100 nM.
`CN(C(=O)C1CCC1)N(Cc1ccc(C(F)(F)F)cn1)C(=O)c1ccc2nc(N)c3cnn(C)c3c2c1` [Example 108, 4-amino-N′-(cyclobutanecarbonyl)-N′,1-dimethyl-N-[[5-(trifluoromethyl)-2-pyridyl]methyl]pyrazolo[4,3-c]quinoline-8-carbohydrazide]: in test [1], the EC50 was under 1 nM and the “EC50 selectivity (SDMA assay)” value came to 70. The same compound came in with a CC50 in test [2] of under 100 nM.
Turning to `CN(C(=O)OCC(F)(F)F)N(Cc1ccc(C(F)(F)F)cn1)C(=O)c1ccc2nc(N)c3cnn(C)c3c2c1` [Example 109, 2,2,2-trifluoroethyl N-[(4-amino-1-methyl-pyrazolo[4,3-c]quinoline-8-carbonyl)-[[5-(trifluoromethyl)-2-pyridyl]methyl]amino]-N-methyl-carbamate], in test [1], the EC50 is under 1 nM and the “EC50 selectivity (SDMA assay)” value stood at 12. This compound came in with a CC50 in test [2] of under 100 nM.
The like results for `CN(C(=O)OCC(F)F)N(Cc1ccc(C(F)(F)F)cn1)C(=O)c1ccc2nc(N)c3cnn(C)c3c2c1` [Example 110, 2,2-difluoroethyl N-[(4-amino-1-methyl-pyrazolo[4,3-c]quinoline-8-carbonyl)-[[5-(trifluoromethyl)-2-pyridyl]methyl]amino]-N-methyl-carbamate] were, in that order, under 1 nM, 11 and under 100 nM.
In the same order, the values of `CN(C(=O)C1CC1)N(Cc1ccc(C(F)(F)F)cn1)C(=O)c1ccc2nc(N)c3cnn(C)c3c2c1` [Example 111, 4-amino-N′-(cyclopropanecarbonyl)-N′,1-dimethyl-N-[[5-(trifluoromethyl)-2-pyridyl]methyl]pyrazolo[4,3-c]quinoline-8-carbohydrazide] are under 1 nM, 129 and under 100 nM.
In the case of `CN(C(=O)OC1CCC1)N(Cc1ccc(C(F)(F)F)cn1)C(=O)c1ccc2nc(N)c3cnn(C)c3c2c1` [Example 112, cyclobutyl N-[(4-amino-1-methyl-pyrazolo[4,3-c]quinoline-8-carbonyl)-[[5-(trifluoromethyl)-2-pyridyl]methyl]amino]-N-methyl-carbamate], in test [1], the EC50 is under 1 nM and the “EC50 selectivity (SDMA assay)” value was 46. This compound also yielded a CC50 in test [2] of under 100 nM.
In the case of `CN(C(=O)c1ccncc1)N(Cc1ccc(C(F)(F)F)cn1)C(=O)c1ccc2nc(N)c3cnn(C)c3c2c1` [Example 113, 4-amino-N′,1-dimethyl-N′-(pyridine-4-carbonyl)-N-[[5-(trifluoromethyl)-2-pyridyl]methyl]pyrazolo[4,3-c]quinoline-8-carbohydrazide], in test [1], the concentration for a half-maximal effect (EC50) was 1 to 5 nM and the “EC50 selectivity (SDMA assay)” value was found to be 404. The compound further yielded a CC50 in test [2] of 100 to 1000 nM.
The like results for `CC(=O)N(c1ncccn1)N(Cc1ccc(C(F)(F)F)cn1)C(=O)c1ccc2nc(N)c3cnn(C)c3c2c1` [Example 114, N′-acetyl-4-amino-1-methyl-N′-pyrimidin-2-yl-N-[[5-(trifluoromethyl)-2-pyridyl]methyl]pyrazolo[4,3-c]quinoline-8-carbohydrazide] were, in that order, under 1 nM, 32 and under 100 nM.
Turning to `CC(=O)N(CC(F)F)N(Cc1ccc(C(F)(F)F)cn1)C(=O)c1ccc2nc(N)c3cnn(C)c3c2c1` [Example 115, N′-acetyl-4-amino-N′-(2,2-difluoroethyl)-1-methyl-N-[[5-(trifluoromethyl)-2-pyridyl]methyl]pyrazolo[4,3-c]quinoline-8-carbohydrazide], in test [1], the EC50 lay in the range of 1 to 5 nM and the “EC50 selectivity (SDMA assay)” value was found to be 382. Moreover, the half-maximal cytotoxic concentration (CC50) in test [2] lay within 100 to 1000 nM.
Take `CC(=O)N(CC(F)(F)F)N(Cc1ccc(C(F)(F)F)cn1)C(=O)c1ccc2nc(N)c3cnn(C)c3c2c1` [Example 116, N′-acetyl-4-amino-1-methyl-N′-(2,2,2-trifluoroethyl)-N-[[5-(trifluoromethyl)-2-pyridyl]methyl]pyrazolo[4,3-c]quinoline-8-carbohydrazide]: in test [1], the half-maximal effective concentration (EC50) lay within 1 to 5 nM and the “EC50 selectivity (SDMA assay)” value amounted to 189. Also, in test [2], the CC50 fell in the range of 100 to 1000 nM.
The like results for `CN(C(=O)C1(F)CC1)N(Cc1ccc(C(F)(F)F)cn1)C(=O)c1ccc2nc(N)c3cnn(C)c3c2c1` [Example 117, 4-amino-N′-(1-fluorocyclopropanecarbonyl)-N′,1-dimethyl-N-[[5-(trifluoromethyl)-2-pyridyl]methyl]pyrazolo[4,3-c]quinoline-8-carbohydrazide] were, in that order, under 1 nM, 34 and under 100 nM.
As to `CN(C(=O)c1ccccn1)N(Cc1ccc(C(F)(F)F)cn1)C(=O)c1ccc2nc(N)c3cnn(C)c3c2c1` [Example 118, 4-amino-N′,1-dimethyl-N′-picolinoyl-N-((5-(trifluoromethyl)pyridin-2-yl)methyl)-1H-pyrazolo[4,3-c]quinoline-8-carbohydrazide], in test [1], the EC50 is under 1 nM and the “EC50 selectivity (SDMA assay)” value is on record as 96. In test [2], the CC50 is under 100 nM.
With `CN(C(=O)C(C)(C)C)N(Cc1ccc(C(F)(F)F)cn1)C(=O)c1ccc2nc(N)c3cnn(C)c3c2c1` [Example 119, 4-amino-N′,1-dimethyl-N′-pivaloyl-N-((5-(trifluoromethyl)pyridin-2-yl)methyl)-1H-pyrazolo[4,3-c]quinoline-8-carbohydrazide], in test [1], the EC50 is under 1 nM and the “EC50 selectivity (SDMA assay)” value is reported as 156. The CC50 in test [2] is under 100 nM.
`CC(C)C(=O)N(C)N(Cc1ccc(C(F)(F)F)cn1)C(=O)c1ccc2nc(N)c3cnn(C)c3c2c1` [Example 120, 4-amino-N′-isobutyryl-N′,1-dimethyl-N-((5-(trifluoromethyl)pyridin-2-yl)methyl)-1H-pyrazolo[4,3-c]quinoline-8-carbohydrazide]: in test [1], the EC50 is under 1 nM and the “EC50 selectivity (SDMA assay)” value came to 542. Besides, the CC50 in test [2] is under 100 nM.
In the same order, the values of `CN(C(=O)C(C)(C)F)N(Cc1ccc(C(F)(F)F)cn1)C(=O)c1ccc2nc(N)c3cnn(C)c3c2c1` [Example 121, 4-amino-N′-(2-fluoro-2-methylpropanoyl)-N′,1-dimethyl-N-((5-(trifluoromethyl)pyridin-2-yl)methyl)-1H-pyrazolo[4,3-c]quinoline-8-carbohydrazide] are under 1 nM, 106 and under 100 nM.
